{"source": "patent US20250213639A1", "about": "(U.S. NUTRACEUTICALS, INC., d/b/a Valensa International, priority 2021, published 2025)", "key": {"DHT": {"system": "DHT", "details": "cited from earlier work"}, "[1]": {"details": "oral, guinea pigs, fur and skin; cited from earlier work"}, "[2]": {"system": "men with mild to moderate androgenic alopecia", "details": "1 milligram per day, 24 months; cited from earlier work"}, "5α-Reductase-1": {"target": "T1, 5α-Reductase-1 (Homo sapiens, UniProt P18405)", "T1 sequence (P18405 1-259)": "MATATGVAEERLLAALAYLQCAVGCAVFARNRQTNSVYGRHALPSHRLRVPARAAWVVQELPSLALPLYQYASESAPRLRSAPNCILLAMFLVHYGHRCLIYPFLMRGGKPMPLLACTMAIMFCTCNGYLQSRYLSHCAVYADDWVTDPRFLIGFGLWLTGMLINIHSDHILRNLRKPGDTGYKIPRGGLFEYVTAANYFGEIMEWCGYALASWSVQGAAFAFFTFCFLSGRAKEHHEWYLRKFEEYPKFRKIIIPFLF", "assay": "5α-reductase inhibition by constituents of saw palmetto extract (FIGS. 2, 3), Type 1", "type": "biochemical"}, "5α-Reductase-2": {"target": "T2, 5α-Reductase-2 (Homo sapiens, UniProt P31213)", "T2 sequence (P31213 1-254)": "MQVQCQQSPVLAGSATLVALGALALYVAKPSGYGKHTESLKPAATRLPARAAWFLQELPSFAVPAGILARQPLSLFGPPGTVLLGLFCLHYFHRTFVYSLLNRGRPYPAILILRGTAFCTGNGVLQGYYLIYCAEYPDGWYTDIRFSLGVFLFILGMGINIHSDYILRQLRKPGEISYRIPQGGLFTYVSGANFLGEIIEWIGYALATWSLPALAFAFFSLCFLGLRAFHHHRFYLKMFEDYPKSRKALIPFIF", "assay": "5α-reductase inhibition by constituents of saw palmetto extract (FIGS. 2, 3), Type 2", "type": "biochemical"}, "normal mice": {"system": "normal mice", "details": "after about 20 days, normal shaved mice; cited from earlier work"}}, "data": [{"smiles": "C[C@]12C=CC(=O)N[C@@H]1CC[C@@H]1[C@@H]2CC[C@]2(C)[C@@H](C(=O)Nc3cc(C(F)(F)F)ccc3C(F)(F)F)CC[C@@H]12", "note": "[Dutasteride]", "values": [{"measurement": "reduction of DHT levels in the entire body", "setting": "DHT; in vivo", "value": "more than 99%"}]}, {"smiles": "CC/C=C\\C/C=C\\C/C=C\\CCCCCCCC(=O)O", "note": "[Linolenic acid]", "values": [{"measurement": "share of that lipid found in the free fatty acid form", "setting": "[1]", "value": "Over 70%"}]}, {"smiles": "CC(C)(C)NC(=O)[C@H]1CC[C@H]2[C@@H]3CC[C@H]4NC(=O)C=C[C@]4(C)[C@H]3CC[C@]12C", "note": "[finasteride]", "values": [{"measurement": "decrease of the production of DHT", "setting": "DHT; in some formulations", "value": "about 70%"}, {"measurement": "men who noted an improvement", "setting": "[2]", "value": 68, "unit": "%"}]}, {"smiles": "CCCCCCCC/C=C\\CCCCCCCC(=O)O", "note": "[oleic acid]", "values": [{"measurement": "effectiveness for 5α-Reductase-1", "setting": "5α-Reductase-1", "value": "especially effective"}, {"measurement": "effectiveness for 5α-Reductase-2", "setting": "5α-Reductase-2", "value": "not as much"}]}, {"smiles": "CCCCC/C=C\\C/C=C\\CCCCCCCC(=O)O", "note": "[linoleic acid]", "values": [{"measurement": "effectiveness for 5α-Reductase-1", "setting": "5α-Reductase-1", "value": "beneficial for both"}, {"measurement": "hair growth", "setting": "normal mice", "value": "about 100%"}]}]}
